In ChEMBL document CHEMBL1201862, “PubChem BioAssay data set” (2004):
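Following 48 hours of exposure in 96-well plates, responses at five concentrations were used to interpolate endpoints linearly. GI50 = concentration required for 50% inhibition of growth.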 The source made the active and inactive calls. Cut-off read from the data, not from the text of the source: active = GI50 up to about 1.1 µM and inactive = higher.

Legend:
Test in all cases: NCI anticancer screen, dose series, 48 h
HOP-92 = tested on: HOP-92
OVCAR-4 = tested on: OVCAR-4
MDA-N = tested on: MDA-N
NCI-H522 = tested on: NCI-H522
SF-295 = tested on: SF-295
UACC-257 = tested on: UACC-257
OVCAR-8 = tested on: OVCAR-8
COLO 205 = tested on: COLO 205
DU-145 = tested on: DU-145
HOP-62 = tested on: HOP-62
OVCAR-3 = tested on: OVCAR-3
TK-10 = tested on: TK-10
M14 = tested on: M14
HCT-116 = tested on: HCT-116
T47D = tested on: T47D
MDA-MB-435 = tested on: MDA-MB-435
MCF7 = tested on: MCF7
SK-MEL-2 = tested on: SK-MEL-2
K562 = tested on: K562
CCRF-CEM = tested on: CCRF-CEM

| SMILES | GI50 (HOP-92) | GI50 (OVCAR-4) | GI50 (MDA-N) | GI50 (NCI-H522) | GI50 (SF-295) | GI50 (UACC-257) | GI50 (OVCAR-8) | GI50 (COLO 205) | GI50 (DU-145) | GI50 (HOP-62) | GI50 (OVCAR-3) | GI50 (TK-10) | GI50 (M14) | GI50 (HCT-116) | GI50 (T47D) | GI50 (MDA-MB-435) | GI50 (MCF7) | GI50 (SK-MEL-2) | GI50 (K562) | GI50 (CCRF-CEM) |
| --- | --- | --- | --- | --- | --- | --- | --- | --- | --- | --- | --- | --- | --- | --- | --- | --- | --- | --- | --- | --- |
| CC(C)[Si](OC1=C(C(=O)N(C)c2ccccc2Cl)CCC1)(C(C)C)C(C)C | 18.3 µM (inactive) | 16.3 µM (inactive) | 19.8 µM (inactive) | 14.1 µM (inactive) | 14.2 µM (inactive) | 19 µM (inactive) | 17 µM (inactive) | 17.8 µM (inactive) | 22 µM (inactive) | 17.6 µM (inactive) | 16.7 µM (inactive) | 17.8 µM (inactive) | 19 µM (inactive) | 19.5 µM (inactive) | 19.7 µM (inactive) | 19 µM (inactive) |  |  |  |  |
| c1ccc(C2=Nc3nc4ccccc4n3C(c3ccccc3)C2)cc1 (stereo unspecified) | 24.6 µM (inactive) | > 100 µM (inactive) | > 100 µM (inactive) | > 100 µM (inactive) | 79.8 µM (inactive) | > 100 µM (inactive) | > 100 µM (inactive) | > 100 µM (inactive) |  | 36 µM (inactive) | > 100 µM (inactive) | > 100 µM (inactive) | > 100 µM (inactive) | > 100 µM (inactive) | > 100 µM (inactive) | 36 µM (inactive) | > 100 µM (inactive) | > 100 µM (inactive) | > 100 µM (inactive) | > 100 µM (inactive) |
| Cc1ccc(/N=N/C(=O)NNc2ccc(C)cc2Br)c(Br)c1 |  | 37.5 µM (inactive) | 19.3 µM (inactive) | 26.1 µM (inactive) |  | 26.8 µM (inactive) | 20.5 µM (inactive) |  | 19.9 µM (inactive) | 19.6 µM (inactive) | 19.9 µM (inactive) | 31.1 µM (inactive) | 24.5 µM (inactive) | 10.9 µM (inactive) | 17.8 µM (inactive) | 30.5 µM (inactive) | 21.8 µM (inactive) | 16.1 µM (inactive) | 16.4 µM (inactive) | 2.58 µM (inactive) |
| O=S(=O)(O)c1cccc2ccc(O)c(/N=N\c3ccc(S(=O)(=O)c4ccc(/N=N/c5c(O)ccc6cccc(S(=O)(=O)O)c56)cc4)cc3)c12 | > 100 µM (inactive) | > 100 µM (inactive) | > 100 µM (inactive) | > 100 µM (inactive) | > 100 µM (inactive) | > 100 µM (inactive) | > 100 µM (inactive) | > 100 µM (inactive) | > 100 µM (inactive) | > 100 µM (inactive) | > 100 µM (inactive) | > 100 µM (inactive) | > 100 µM (inactive) | > 100 µM (inactive) | > 100 µM (inactive) | > 100 µM (inactive) |  | > 100 µM (inactive) | 50.4 µM (inactive) | > 100 µM (inactive) |
| CCOc1ccc(NC(=O)C(=O)Nn2c(N)nnc2N)cc1 | > 100 µM (inactive) | > 100 µM (inactive) | > 100 µM (inactive) | > 100 µM (inactive) | > 100 µM (inactive) | > 100 µM (inactive) | > 100 µM (inactive) |  |  | > 100 µM (inactive) | > 100 µM (inactive) | > 100 µM (inactive) | > 100 µM (inactive) | > 100 µM (inactive) | > 100 µM (inactive) | > 100 µM (inactive) | > 100 µM (inactive) | > 100 µM (inactive) | > 100 µM (inactive) | > 100 µM (inactive) |
| Clc1cccc(Cl)c1C1SCc2nc3ncccc3n21 (stereo unspecified) |  | 52.2 µM (inactive) | 62.8 µM (inactive) | > 100 µM (inactive) | > 100 µM (inactive) | > 100 µM (inactive) | > 100 µM (inactive) | > 100 µM (inactive) | > 100 µM (inactive) | > 100 µM (inactive) | 44.1 µM (inactive) | > 100 µM (inactive) | > 100 µM (inactive) | 94.6 µM (inactive) | > 100 µM (inactive) | 39.4 µM (inactive) |  | > 100 µM (inactive) | 49.5 µM (inactive) | 92.3 µM (inactive) |
| Cc1cc2c(s1)C(N)CC2=O (stereo unspecified) |  |  | > 100 µM (inactive) |  |  | > 100 µM (inactive) | > 100 µM (inactive) | > 100 µM (inactive) | > 100 µM (inactive) | > 100 µM (inactive) | > 100 µM (inactive) | > 100 µM (inactive) | > 100 µM (inactive) | > 100 µM (inactive) | > 100 µM (inactive) | > 100 µM (inactive) | > 100 µM (inactive) | > 100 µM (inactive) | > 100 µM (inactive) | > 100 µM (inactive) |
| O=C(O)c1ccccc1-c1ccccc1C(=O)Nc1ccc2c(c1)nc(O)c1ccccc12 | > 100 µM (inactive) | > 100 µM (inactive) |  | 61.8 µM (inactive) | > 100 µM (inactive) | > 100 µM (inactive) | > 100 µM (inactive) | > 100 µM (inactive) | > 100 µM (inactive) | > 100 µM (inactive) | > 100 µM (inactive) | > 100 µM (inactive) | > 100 µM (inactive) | > 100 µM (inactive) | > 100 µM (inactive) | 89.7 µM (inactive) | > 100 µM (inactive) | 87.9 µM (inactive) | 39.6 µM (inactive) | 62.8 µM (inactive) |
| CC1(C)Oc2ccc3c(=O)cc(-c4cccs4)oc3c2C1C(=O)O (stereo unspecified) |  |  | > 100 µM (inactive) | > 100 µM (inactive) | > 100 µM (inactive) | > 100 µM (inactive) | > 100 µM (inactive) | > 100 µM (inactive) | > 100 µM (inactive) | > 100 µM (inactive) | > 100 µM (inactive) | > 100 µM (inactive) | > 100 µM (inactive) | > 100 µM (inactive) | > 100 µM (inactive) | > 100 µM (inactive) | > 100 µM (inactive) | > 100 µM (inactive) | > 100 µM (inactive) | > 100 µM (inactive) |
| COC(=O)c1ccc2[nH]c3c(c2c1)CC(=O)Nc1ccccc1-3 |  | 0.673 µM (active) | > 100 µM (inactive) | > 100 µM (inactive) | > 100 µM (inactive) | > 100 µM (inactive) | 5.9 µM (inactive) | > 100 µM (inactive) | 45.7 µM (inactive) | 24.3 µM (inactive) | > 100 µM (inactive) | 83.9 µM (inactive) | 35.8 µM (inactive) | > 100 µM (inactive) | > 100 µM (inactive) | > 100 µM (inactive) | > 100 µM (inactive) | > 100 µM (inactive) | 27.4 µM (inactive) |  |
| CC(C)c1cccc(C(=O)NCCN(C)C)c1[N+](=O)[O-] |  |  | > 100 µM (inactive) | > 100 µM (inactive) | > 100 µM (inactive) | > 100 µM (inactive) | > 100 µM (inactive) | > 100 µM (inactive) | > 100 µM (inactive) | > 100 µM (inactive) | > 100 µM (inactive) | > 100 µM (inactive) | > 100 µM (inactive) | > 100 µM (inactive) | > 100 µM (inactive) | > 100 µM (inactive) | > 100 µM (inactive) | > 100 µM (inactive) | > 100 µM (inactive) | > 100 µM (inactive) |
